Data from the CheMixHub viscosity set.

Test: xn = mol fraction of the nth substance listed

OCc1ccccc1 + CCCCCC
viscosity [mPa·s], 101.3 kPa
Details	303.15 K	313.15 K	323.15 K
x1 = 0.0101	0.303	0.284	0.254
x2 = 0.0312	4.044	3.013	2.36
x2 = 0.0645	3.832	2.754	2.173
x2 = 0.0976	3.35	2.394	1.974
x2 = 0.1313	3.119	2.256	1.79
x2 = 0.1653	2.649	2.004	1.616
x2 = 0.2056	2.328	1.827	1.455
x2 = 0.255	1.972	1.615	1.327
x2 = 0.8792	0.364	0.335	0.307
x2 = 0.955	0.326	0.302	0.268
x2 = 0.9699	0.32	0.3	0.262
x2 = 0.9799	0.312	0.292	0.258

CCCCC(CC)C(=O)OCC(COC(=O)C(CC)CCCC)(COC(=O)C(CC)CCCC)COC(=O)C(CC)CCCC (stereo not given) + CCCCCCC(=O)OCC(COC(=O)CCCCCC)(COC(=O)CCCCCC)COC(=O)CCCCCC
100 kPa, x1 = 0.667
Details	viscosity [mPa·s]
303.15 K	51.7
313.15 K	32.6
323.15 K	20.7

CC(C)(C)C1CCCCC1 + CCCCCCCCCCCC
viscosity [mPa·s], 102 kPa
Details	x1 = 0.1003	x1 = 0.2004	x1 = 0.3011	x1 = 0.4005	x1 = 0.5001	x1 = 0.601	x1 = 0.7001	x1 = 0.8003	x1 = 0.8991
293.15 K	1.5	1.5	1.5	1.51	1.53	1.54	1.57	1.6	1.64
303.15 K	1.26	1.26	1.27	1.27	1.28	1.3	1.32	1.34	1.38
313.15 K	1.07	1.07	1.08	1.09	1.09	1.11	1.13	1.15	1.17
323.15 K	0.92	0.925	0.933	0.939	0.946	0.958	0.975	0.992	1.01
